Source: paper PMC6695674, “Bioluminescence Resonance Energy Transfer Based G Protein-Activation Assay to Probe Duration of Antagonism at the Histamine H3 Receptor” (International Journal of Molecular Sciences, 2019)
Where two headings read alike, the source gives them in different places. Blank lines part the entries; values can stand above or below the compound they belong to.

Legend:
[1] = target: T1, human histamine H3 receptor (hH3R) (Homo sapiens, UniProt Q9Y5N1); test: BRET between Venus-Gβ1γ2 and masGRK3ct-Nluc to measure hH3R-induced Gαi2 activation in HEK293T cells; type: cell-based; conditions: for inhibition of Venus-Gβ1γ2 recruitment to masGRK3ct-Nluc in response to 1 µM histamine: antagonist 10 µM; for agonist efficacy class in the Gβ1γ2 release assay: HEK293T cells co-expressing hH3R and Gαi2; for intrinsic activity (α) / pEC50 ± S.E.M.: hH3R-mediated Gαi2 activation in HEK293T cells; for pEC50 ± S.E.M.: BRET ratio after 10 min, mean ± S.E.M. of three experiments
T1 construct: expressed in transfected cells; host or cells: HEK293T cells, transient transfection (hH3R in pcDEF3)
Experimental: Cells were transiently transfected in a 10 cm^2 dish with plasmids coding for Venus155-239-Gβ1 (0.4 µg), Venus1-155-Gγ2 (0.4 µg), masGRK3ct-Nluc (0.4 µg), hH3R (0.4 µg), Gαi2-protein (1.2 µg), and empty pcDEF3 (2.2 µg) using 20 µg 25 kDa linear polyethylenimine (Polysciences Inc, Warrington, PA, USA), as previously described. The next day, 50,000 cells/well were transferred to a poly-L-lysine coated black 96 well plates (Greiner Bio-one GmbH, Frickenhausen, Germany) and grown for an additional 24 h.
(§1) Agonist-induced BRET between Venus-Gβ1γ2 and masGRK3ct-Nluc was measured on adherent HEK293T cells co-expressing hH3R and Gαi2 in the presence of NanoGlo® (3.2 µL/mL) using a Mithras LB940 multimode microplate reader (Berthold, Germany). Cells were stimulated with histamine in the absence and presence of antagonist in HBSS buffer, and BRET (540–40 nm) and luminescence (480–20 nm) signals were monitored either immediately or after 10 min at 25 °C. […] Next, cells were incubated in HBSS and stimulated with 10 μM imetit after various incubation times. BRET between Venus-G1βγ2 and masGRK3ct-Nluc was immediately measured upon imetit stimulation and BRET ratio after 10 s were plotted. Re-equilibration of pre-bound antagonists was measured upon pre-incubation of the cells with increasing concentrations of antagonist for one hour prior to the addition of increasing concentrations imetit or VUF8328 and BRET ratio was calculated either immediately after agonist addition (0–3 min) or after 10 min re-equilibration.
Ligand-induced BRET changes were calculated by dividing emission at 540–40 nm (Venus) by emission at 480–20 nm (Nluc) and baseline-corrected by subtracting BRET of vehicle. […] Agonist and antagonist concentration-response curves were fitted to three-parameter response models to obtain EC50 and IC50 values, respectively. […] For receptor recovery the vehicle corrected BRET ratio at 10 s after agonist addition was plotted over time.

hH3R [2] = conditions: previously reported competition binding studies, cited from earlier work
H3R = tested on: H3R; design: method as in PMID 30249614, PMID 30359639; conditions: intact HEK293T cells; cited from earlier work
[3] = target: T1, human histamine H3 receptor (hH3R); test: Recovery of hH3R responsiveness after washout of pre-bound antagonist (BRET Gβ1γ2 release assay); type: cell-based; conditions: for RecT (receptor recovery time, 1/krec): 1 h pre-incubation at 10 × IC50, washout, 10 µM imetit, measured in singlo; for recovery of H3R-induced Gβ1γ2 release to steady-state level upon washout: agonist stimulation after washout of pre-bound antagonist
Experimental: Cells were then stimulated with a saturating concentration of imetit (10 µM) after different time intervals and BRET changes between Venus-Gβ1γ2 and masGRK3ct-Nluc were measured directly and BRET ratio 10 s after agonist stimulation were plotted (Figure 2A,B).
as §1
The receptor recovery time (RecT) was calculated as the reciprocal of the krec.

[4] = target: T1, human histamine H3 receptor (hH3R); test: Re-equilibration of pre-bound antagonist, Schild-plot analysis (BRET Gβ1γ2 release assay); type: cell-based; conditions: for type of antagonism after 10 min re-equilibration: VUF8328, 1 h antagonist pre-incubation; for type of antagonism, response measured directly following agonist stimulation: imetit or VUF8328, 1 h antagonist pre-incubation
Experimental: Receptor-induced Venus-Gβ1γ2 recruitment to masGRK3ct-Nluc can be detected after different time intervals following stimulation with agonist, which offers the opportunity to evaluate the re-equilibration time of pre-bound antagonist within the same agonist-induced response. Cells were pre-incubated for 1 h with multiple concentrations of antagonist and subsequently stimulated with increasing concentrations agonist and BRET ratio was calculated either immediately after agonist addition or after 10 min re-equilibration (Figure 3A).
as §1
Equiactive agonist concentrations for Schild analysis were determined from concentration response curves at 10 % max agonist response (vide supra) in the absence and presence of increasing antagonist concentrations. Dose ratios (DR) were calculated by dividing the equiactive agonist concentration in the presence of antagonist by the equiactive agonist concentration in the absence of antagonist.

hH3R [5] = tested on: hH3R; design: method as in PMID 30249614; conditions: CAMYEL biosensor; cited from earlier work
[6] = 1 h antagonist pre-incubation, agonist VUF8328, BRET after 10 min re-equilibration
[7] = 1 h antagonist pre-incubation, agonist VUF8328, BRET measured immediately
[8] = 1 h antagonist pre-incubation, agonist imetit, BRET measured immediately

T1 sequence (Q9Y5N1 whole entry): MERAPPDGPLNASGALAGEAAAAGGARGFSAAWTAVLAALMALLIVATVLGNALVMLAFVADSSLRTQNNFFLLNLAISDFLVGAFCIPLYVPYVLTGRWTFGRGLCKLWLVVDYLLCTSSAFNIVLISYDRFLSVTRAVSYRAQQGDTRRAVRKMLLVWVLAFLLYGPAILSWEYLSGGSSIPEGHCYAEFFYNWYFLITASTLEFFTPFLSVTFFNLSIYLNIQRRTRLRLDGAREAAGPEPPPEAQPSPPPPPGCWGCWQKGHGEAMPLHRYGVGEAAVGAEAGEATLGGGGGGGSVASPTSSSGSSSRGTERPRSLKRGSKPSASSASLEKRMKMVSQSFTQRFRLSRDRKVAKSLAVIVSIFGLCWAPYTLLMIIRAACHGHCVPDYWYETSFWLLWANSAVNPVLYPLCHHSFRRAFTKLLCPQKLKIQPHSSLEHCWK

inhibition of Venus-Gβ1γ2 recruitment to masGRK3ct-Nluc in response to 1 µM histamine [1]: ineffective
Compound: CN1CCN(C(=O)c2cc3cc(Cl)ccc3[nH]2)CC1 [JNJ7777120]

inhibition of Venus-Gβ1γ2 recruitment to masGRK3ct-Nluc in response to 1 µM histamine [1]: ineffective
Compound: COc1ccc(CN(CCN(C)C)c2ccccn2)cc1 [mepyramine]

Compound: N=C(N)SCCc1cnc[nH]1 [Imetit]
EC50 [1]: 251 pM
agonist efficacy class in the Gβ1γ2 release assay [1]: full agonist
intrinsic activity (α) ([1]; mean ± S.E.M.): 1.1 ± 0.1
pKi (hH3R [2]; agonists): 8.6

pKB ([1]; calculated from IC50 values, inhibition of histamine-induced (1 µM) BRET ratio, 10 min, mean ± S.E.M.): 9.9 ± 0.1
RecT (receptor recovery time, 1/krec) [3]: 3.6 ± 0.3 min
hH3R recovery slower than upon washout of iodophenpropit and pitolisant ([3]; after antagonist washout): 2 to 2.5 fold
recovery of H3R-induced Gβ1γ2 release to steady-state level upon washout [3]: < 20 min
Schild slope, VUF8328 (10 min) [4, 6]: 1.2 ± 0.1
pA2, VUF8328 (10 min) [4, 6]: 9.6 ± 0.2
Schild slope, VUF8328 (0 min) [4, 7]: 1.5 ± 0.2
pA2, VUF8328 (0 min) [4, 7]: 9.3 ± 0.2
Schild slope, Imetit (0 min) [4, 8]: 1.0 ± 0.1
pA2, Imetit (0 min) [4, 8]: 9.8 ± 0.1
type of antagonism after 10 min re-equilibration [4]: near-surmountable
type of antagonism, response measured directly following agonist stimulation [4]: insurmountable antagonists
Compound: CCNC(=O)[C@H]1C[C@@](F)(c2ccc(CN3CCCC3)c(F)c2)C1 [PF03654746]
residence time (H3R): approximately 15 min
pKi (hH3R [2]; antagonists): 9.3

inhibition of Venus-Gβ1γ2 recruitment to masGRK3ct-Nluc in response to 1 µM histamine [1]: fully inhibited
RecT (receptor recovery time, 1/krec) [3]: 1.7 ± 0.3 min
recovery of H3R-induced Gβ1γ2 release to steady-state level upon washout [3]: < 20 min
Schild slope, VUF8328 (10 min) [4, 6]: 1.1 ± 0.1
Schild slope, VUF8328 (0 min) [4, 7]: 1.4 ± 0.0
Schild slope, Imetit (0 min) [4, 8]: 1.1 ± 0.0
type of antagonism after 10 min re-equilibration [4]: surmountable
type of antagonism, response measured directly following agonist stimulation [4]: insurmountable antagonists
Compound: Clc1ccc(CCCOCCCN2CCCCC2)cc1 [Pitolisant]
time to full recovery of hH3R responsiveness following washout (hH3R [5]): > 30 min

Compound: c1ncc(CC2CCNCC2)[nH]1 [immepip]
agonist efficacy class in the Gβ1γ2 release assay [1]: full agonist
pEC50 ± S.E.M. [1]: 9.9 ± 0.1
intrinsic activity (α) ([1]; mean ± S.E.M.): 1.0 ± 0.1
pKi (hH3R [2]; agonists): 8.8

agonist efficacy class in the Gβ1γ2 release assay [1]: partial agonist
pEC50 ± S.E.M. [1]: 9.4 ± 0.1
intrinsic activity (α) ([1]; mean ± S.E.M.): 0.7 ± 0.2
Compound: N=C(N)SCCCc1cnc[nH]1 [VUF8328]
pKi (hH3R [2]; agonists): 8.5

inhibition of Venus-Gβ1γ2 recruitment to masGRK3ct-Nluc in response to 1 µM histamine [1]: ineffective
Compound: CNC(=NCCSCc1csc(N=C(N)N)n1)NC#N [tiotidine]

Compound: NCCc1c[nH]cn1 [Histamine, histamine]
pKi (hH3R [2]; agonists): 6.7
